In patent publication US20050208496A1, “Methods of testing for bronchial asthma or chronic obstructive pulmonary disease” (Genox Research, Inc., priority 2002, published 2005):
Like-named read-outs stand apart in the source and are kept apart here.

System: respiratory epithelial cells
Settings: IL-13 vs no stimulation

IL-13: human IL-13 (Peprotech, Inc.) added to the medium at 50 ng/mL to stimulate respiratory epithelial cells
BENE (33331_at) expression change (lot 1 Day 3 IMM): −2.8
CRA (1230_g_at) expression change (lot 1 Day 3 IMM): −2.3
CTSL2 (40717_at) expression change (lot 1 Day 3 IMM): −2.2
DUSP1 (1005_at) expression change (lot 1 Day 3 IMM): −2.4
IGFBP3 (37319_at) expression change (lot 1 Day 3 IMM): −2
IGFBP6 (1736_at) expression change (lot 1 Day 3 IMM): −2.8
MMP9 (31859_at) expression change (lot 1 Day 3 IMM): −7.3
MMP10 (1006_at) expression change (lot 1 Day 3 IMM): −3.4
MSMB (32149_at) expression change (lot 1 Day 3 IMM): −3.7
NDRG1 (36933_at) expression change (lot 1 Day 3 IMM): −2.3
NOTCH3 (38750_at) expression change (lot 1 Day 3 IMM): −3.5
PFTK1 (36502_at) expression change (lot 1 Day 3 IMM): −2.6
PSCA (33792_at) expression change (lot 1 Day 3 IMM): −3.9
SERPINA3 (33825_at) expression change (lot 1 Day 3 IMM): −3.8
SERPINE1 (672_at) expression change (lot 1 Day 3 IMM): −7.7
SERPINE1 (38125_at) expression change (lot 1 Day 3 IMM): −4.2
TSPAN-5 (40990_at) expression change (lot 1 Day 3 IMM): −2.8
AGR2 (38827_at) expression change (lot 1 Day 7 AI): −2.7
AKR1B10 (37482_at) expression change (lot 1 Day 7 AI): −7.5
AKR1C3 (37399_at) expression change (lot 1 Day 7 AI): −4
ANXA10 (32349_at) expression change (lot 1 Day 7 AI): −2.5
APM2 (32527_at) expression change (lot 1 Day 7 AI): −3.8
AREG (34898_at) expression change (lot 1 Day 7 AI): −4.8
BCAS1 (37821_at) expression change (lot 1 Day 7 AI): −3.7
BENE (33331_at) expression change (lot 1 Day 7 AI): −7.3
C4.4A (41641_at) expression change (lot 1 Day 7 AI): −2.5
CRA (1230_g_at) expression change (lot 1 Day 7 AI): −2
DEFB2 (32464_at) expression change (lot 1 Day 7 AI): −4.3
ECM1 (37600_at) expression change (lot 1 Day 7 AI): −4.7
EPHA1 (1108_s_at) expression change (lot 1 Day 7 AI): −3.2
ETFB (36881_at) expression change (lot 1 Day 7 AI): −2
FABP5 (39799_at) expression change (lot 1 Day 7 AI): −4.2
GABRE (34280_at) expression change (lot 1 Day 7 AI): −2
GPNMB (38379_at) expression change (lot 1 Day 7 AI): 3.6
HLA-DPB1 (38095_i_at) expression change (lot 1 Day 7 AI): −4.4
HLA-DPB1 (38096_f_at) expression change (lot 1 Day 7 AI): −2.6
IGFBP3 (1586_at) expression change (lot 1 Day 7 AI): −2.4
IGFBP3 (37319_at) expression change (lot 1 Day 7 AI): −2.7
IGFBP6 (1736_at) expression change (lot 1 Day 7 AI): −7.7
IMPA2 (36496_at) expression change (lot 1 Day 7 AI): −2
MMP9 (31859_at) expression change (lot 1 Day 7 AI): −10.9
MN1 (37283_at) expression change (lot 1 Day 7 AI): −3.2
MSMB (32149_at) expression change (lot 1 Day 7 AI): −11.7
NCALD (38803_at) expression change (lot 1 Day 7 AI): −2.8
NDRG1 (36933_at) expression change (lot 1 Day 7 AI): −3.6
NOTCH3 (38750_at) expression change (lot 1 Day 7 AI): −4.6
PSCA (33792_at) expression change (lot 1 Day 7 AI): −5.8
PTK2B (33804_at) expression change (lot 1 Day 7 AI): −6.4
PTPRZ1 (1364_at) expression change (lot 1 Day 7 AI): −3.7
RARRES1 (33505_at) expression change (lot 1 Day 7 AI): −3.3
RDC1 (34288_at) expression change (lot 1 Day 7 AI): −5.3
RTP801 (39827_at) expression change (lot 1 Day 7 AI): −2
S100A8 (41096_at) expression change (lot 1 Day 7 AI): −6.2
SERPINA3 (33825_at) expression change (lot 1 Day 7 AI): −14.1
SERPINB1 (33305_at) expression change (lot 1 Day 7 AI): −2.3
SERPINB5 (862_at) expression change (lot 1 Day 7 AI): −2.2
SERPINE1 (672_at) expression change (lot 1 Day 7 AI): −7.8
SERPINE1 (38125_at) expression change (lot 1 Day 7 AI): −18.3
STK39 (39120_at) expression change (lot 1 Day 7 AI): −2.9
TSPAN-5 (40990_at) expression change (lot 1 Day 7 AI): −3.6
VRP (38223_at) expression change (lot 1 Day 7 AI): −2.5
c-fos (1916_s_at) expression change (lot 1 Day 7 AI): −2.6
AKR1B10 (37482_at) expression change (lot 1 Day 7 IMM): −6.7
AKR1C3 (37399_at) expression change (lot 1 Day 7 IMM): −2.3
APM2 (32527_at) expression change (lot 1 Day 7 IMM): −6.2
AREG (34898_at) expression change (lot 1 Day 7 IMM): −5.2
BENE (33331_at) expression change (lot 1 Day 7 IMM): −4.7
ECM1 (37600_at) expression change (lot 1 Day 7 IMM): −18.4
FABP5 (39799_at) expression change (lot 1 Day 7 IMM): −3.7
GPNMB (38379_at) expression change (lot 1 Day 7 IMM): 4.9
IGFBP3 (1586_at) expression change (lot 1 Day 7 IMM): −3.1
IGFBP3 (37319_at) expression change (lot 1 Day 7 IMM): −3.1
IGFBP6 (1736_at) expression change (lot 1 Day 7 IMM): −5.4
MMP9 (31859_at) expression change (lot 1 Day 7 IMM): −16
NDRG1 (36933_at) expression change (lot 1 Day 7 IMM): −2.4
NOTCH3 (38750_at) expression change (lot 1 Day 7 IMM): −2.7
PFTK1 (36502_at) expression change (lot 1 Day 7 IMM): −3.2
PTK2B (33804_at) expression change (lot 1 Day 7 IMM): −4.1
RARRES1 (1042_at) expression change (lot 1 Day 7 IMM): −3.5
RARRES1 (33505_at) expression change (lot 1 Day 7 IMM): −2.7
RDC1 (34288_at) expression change (lot 1 Day 7 IMM): −2.2
SEC14L2 (32817_at) expression change (lot 1 Day 7 IMM): −2.9
SERPINA3 (33825_at) expression change (lot 1 Day 7 IMM): −5.9
SERPINB1 (33305_at) expression change (lot 1 Day 7 IMM): −2.1
SERPINB5 (862_at) expression change (lot 1 Day 7 IMM): −2.5
SERPINE1 (672_at) expression change (lot 1 Day 7 IMM): −31.3
SERPINE1 (38125_at) expression change (lot 1 Day 7 IMM): −20.1
STK39 (39120_at) expression change (lot 1 Day 7 IMM): −2
TSPAN-5 (40990_at) expression change (lot 1 Day 7 IMM): −2.8
c-fos (1915_s_at) expression change (lot 1 Day 7 IMM): −4.3
c-fos (1916_s_at) expression change (lot 1 Day 7 IMM): −4.7
AKR1B10 (37482_at) expression change (lot 2 Day 3 AI): −7.1
AKR1C3 (37399_at) expression change (lot 2 Day 3 AI): −2.6
ANXA10 (32349_at) expression change (lot 2 Day 3 AI): −7.5
APM2 (32527_at) expression change (lot 2 Day 3 AI): −2.7
AREG (34898_at) expression change (lot 2 Day 3 AI): −14.6
BCAS1 (37821_at) expression change (lot 2 Day 3 AI): −4.6
BDKRB2 (39310_at) expression change (lot 2 Day 3 AI): −2.4
BENE (33331_at) expression change (lot 2 Day 3 AI): −4.8
CRA (1230_g_at) expression change (lot 2 Day 3 AI): −3.4
CTSL2 (40717_at) expression change (lot 2 Day 3 AI): −3.2
DUSP1 (1005_at) expression change (lot 2 Day 3 AI): −4.3
EPHA1 (1108_s_at) expression change (lot 2 Day 3 AI): −2.8
FABP5 (39799_at) expression change (lot 2 Day 3 AI): −3
GPNMB (38379_at) expression change (lot 2 Day 3 AI): −2.2
IGFBP3 (1586_at) expression change (lot 2 Day 3 AI): −2.9
IGFBP3 (37319_at) expression change (lot 2 Day 3 AI): −3
